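Dose response: 5 concentrations. Exposure: 48 h. Format: 96-well plates. Endpoint: linear interpolation; highest concentration if not reached. GI50: concentration for 50% inhibition of growth.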 Activity calls are given as the source filed them. No stated cut-off is given here; in the data, active = GI50 up to about 1.1 µM and inactive = higher.
Assays:
Experiment in all cases: DTP human tumour cell line panel, 48 h
[1] = test system: HCT-15
[2] = test system: EKVX
[3] = test system: SNB-75
[4] = test system: SNB-19
[5] = test system: SN12C
[6] = test system: RPMI-8226
[7] = test system: RXF 393
[8] = test system: SF-268
[9] = test system: SK-OV-3
[10] = test system: KM12
[11] = test system: OVCAR-3
[12] = test system: HL-60
[13] = test system: K562
[14] = test system: HOP-92
[15] = test system: NCI-H23
[16] = test system: Hs-578T
[17] = test system: HCC 2998
[18] = test system: SK-MEL-5
[19] = test system: UACC-257
[20] = test system: UACC-62

Row | SMILES | GI50 [1] [µM] | GI50 [2] | GI50 [3] | GI50 [4] | GI50 [5] | GI50 [6] | GI50 [7] | GI50 [8] | GI50 [9] | GI50 [10] | GI50 [11] | GI50 [12] | GI50 [13] | GI50 [14] | GI50 [15] | GI50 [16] | GI50 [17] | GI50 [18] | GI50 [19] | GI50 [20]
1 | CC(C)c1ccc(C(c2c(O)oc3ccccc3c2=O)c2c(O)oc3ccccc3c2=O)cc1 | 19.1 | 22.9 µM (inactive) | 25.9 µM (inactive) | 20.6 µM (inactive) | 19.4 µM (inactive) | 17.7 µM (inactive) | 21.8 µM (inactive) | 25.6 µM (inactive) | 27 µM (inactive) | 19.5 µM (inactive) | 18.7 µM (inactive) | 6.03 µM (inactive) | 18.2 µM (inactive) | 7.85 µM (inactive) | 23.9 µM (inactive) | 25.6 µM (inactive) | 18.7 µM (inactive) | 16 µM (inactive) | 21.3 µM (inactive) | 15.5 µM (inactive)
2 | C=C(C)C1CC2=C(C(=O)OC)C=C(O2)C(C(=C)C)[C@@H]2OC(=O)/C(=C\C1O)[C@H]2N(C)C (some centres undefined) | 5.97 | 11.7 µM (inactive) | 14.6 µM (inactive) | 1.65 µM (inactive) | 12.5 µM (inactive) | 3.23 µM (inactive) | 5.02 µM (inactive) | 17 µM (inactive) | 24.9 µM (inactive) | 13.7 µM (inactive) | 12.6 µM (inactive) | 2.82 µM (inactive) | 3.6 µM (inactive) | 6.53 µM (inactive) | 13.1 µM (inactive) | 18.9 µM (inactive) | 14.7 µM (inactive) | 14.2 µM (inactive) | 20.9 µM (inactive) | 14.5 µM (inactive)
3 | CN(/N=C/c1cccc2cccnc12)c1ccc(Cl)cc1[N+](=O)[O-] | > 100 | > 100 µM (inactive) | > 100 µM (inactive) | > 100 µM (inactive) | > 100 µM (inactive) | > 100 µM (inactive) | > 100 µM (inactive) | > 100 µM (inactive) | > 100 µM (inactive) | 96.8 µM (inactive) | > 100 µM (inactive) | > 100 µM (inactive) | > 100 µM (inactive) | 31.7 µM (inactive) | > 100 µM (inactive) | 81.5 µM (inactive) | > 100 µM (inactive) | > 100 µM (inactive) | > 100 µM (inactive) | > 100 µM (inactive)
4 | Cc1c(-c2ccccc2)n[nH]c1NC1(C)C(=O)N(/N=C/c2ccccc2)N=C1c1ccccc1 (centres undefined) | > 44.5 | > 91.6 µM (inactive) | > 100 µM (inactive) | > 100 µM (inactive) | > 19.9 µM (inactive) | 5.7 µM (inactive) | > 29.8 µM (inactive) | > 100 µM (inactive) | > 100 µM (inactive) | 38.6 µM (inactive) | > 31.6 µM (inactive) | 46.6 µM (inactive) | 6.15 µM (inactive) | > 100 µM (inactive) | > 100 µM (inactive) | > 100 µM (inactive) | > 100 µM (inactive) | 7.96 µM (inactive) | > 100 µM (inactive) | > 100 µM (inactive)
5 | CCN(CC)CCCC(C)Nc1c2ccc(Cl)cc2nc2ccc(OC)cc12 (centres undefined) | 2.29 | 4.61 µM (inactive) | 1.47 µM (inactive) | 5.36 µM (inactive) | 2.32 µM (inactive) | 2.05 µM (inactive) | 1.2 µM (inactive) | 2.24 µM (inactive) | 4.84 µM (inactive) | 1.63 µM (inactive) | 2.85 µM (inactive) | 2.03 µM (inactive) | 0.824 µM (active) | 1.14 µM (inactive) | 1.61 µM (inactive) | 3.37 µM (inactive) | 1.36 µM (inactive) | 1.71 µM (inactive) | 1.85 µM (inactive) | 1.54 µM (inactive)
6 | Cc1ccc(/C=C2\N=C(N3CCCC(CO)C3)NC2=O)cc1 (centres undefined) | > 100 | > 100 µM (inactive) | > 100 µM (inactive) | > 100 µM (inactive) | > 100 µM (inactive) | > 100 µM (inactive) | > 100 µM (inactive) | > 100 µM (inactive) | > 100 µM (inactive) | > 100 µM (inactive) | > 100 µM (inactive) | > 100 µM (inactive) | > 100 µM (inactive) | > 100 µM (inactive) | > 100 µM (inactive) | > 100 µM (inactive) | > 100 µM (inactive) | > 100 µM (inactive) | > 100 µM (inactive) | > 100 µM (inactive)
7 | Cc1cc(O)c2c(c1O)C(=O)c1c(O)ccc(O)c1C2=O [Cynodontin] | > 100 | > 100 µM (inactive) | 52.5 µM (inactive) | > 100 µM (inactive) | > 100 µM (inactive) | > 100 µM (inactive) | > 100 µM (inactive) | > 100 µM (inactive) | > 100 µM (inactive) | > 100 µM (inactive) | > 100 µM (inactive) | > 100 µM (inactive) | > 100 µM (inactive) | > 100 µM (inactive) | > 100 µM (inactive) | > 100 µM (inactive) | > 100 µM (inactive) | > 100 µM (inactive) | > 100 µM (inactive) | > 100 µM (inactive)
8 | COC(=O)c1ccc(/C=C2\CCc3ccccc3C2=O)cc1 | > 100 | > 100 µM (inactive) | > 100 µM (inactive) | > 100 µM (inactive) | > 100 µM (inactive) | > 100 µM (inactive) | > 100 µM (inactive) | > 100 µM (inactive) | > 100 µM (inactive) | > 100 µM (inactive) | > 100 µM (inactive) | > 100 µM (inactive) | > 100 µM (inactive) | > 100 µM (inactive) | > 100 µM (inactive) | > 100 µM (inactive) | > 100 µM (inactive) | > 100 µM (inactive) | > 100 µM (inactive) | > 100 µM (inactive)
9 | CN(C)CCNS(=O)(=O)c1ccc(N)cc1 | > 100 | > 100 µM (inactive) | > 100 µM (inactive) | > 100 µM (inactive) | > 100 µM (inactive) | > 100 µM (inactive) | > 100 µM (inactive) | > 100 µM (inactive) | > 100 µM (inactive) | > 100 µM (inactive) | 17.2 µM (inactive) | > 100 µM (inactive) | > 100 µM (inactive) | > 100 µM (inactive) | > 100 µM (inactive) | > 100 µM (inactive) | > 100 µM (inactive) | > 100 µM (inactive) | > 100 µM (inactive) | > 100 µM (inactive)
10 | CC(C)[Si](OC1=CCCCCC12C(=O)N(C)c1ccccc12)(C(C)C)C(C)C (centres undefined) | 17.6 | 17.7 µM (inactive) | 13.5 µM (inactive) | 14.9 µM (inactive) | – | 15.1 µM (inactive) | 8.77 µM (inactive) | 18.4 µM (inactive) | 20.5 µM (inactive) | 18.5 µM (inactive) | 16.3 µM (inactive) | 17.1 µM (inactive) | 24.1 µM (inactive) | 16.5 µM (inactive) | 19.5 µM (inactive) | 21.6 µM (inactive) | 21.7 µM (inactive) | 17.5 µM (inactive) | 14.9 µM (inactive) | 18.2 µM (inactive)

From ChEMBL document CHEMBL1201862, “PubChem BioAssay data set” (2004)
